Test results taken from ChEMBL document CHEMBL5291721, “A preclinical secondary pharmacology resource illuminates target-adverse drug reaction associations of marketed drugs” (Nat Commun, 2023).

Key:
B2 bradykinin receptor = molecular target: T1, B2 bradykinin receptor (Homo sapiens, UniProt P30411)
T1 sequence (P30411 whole entry): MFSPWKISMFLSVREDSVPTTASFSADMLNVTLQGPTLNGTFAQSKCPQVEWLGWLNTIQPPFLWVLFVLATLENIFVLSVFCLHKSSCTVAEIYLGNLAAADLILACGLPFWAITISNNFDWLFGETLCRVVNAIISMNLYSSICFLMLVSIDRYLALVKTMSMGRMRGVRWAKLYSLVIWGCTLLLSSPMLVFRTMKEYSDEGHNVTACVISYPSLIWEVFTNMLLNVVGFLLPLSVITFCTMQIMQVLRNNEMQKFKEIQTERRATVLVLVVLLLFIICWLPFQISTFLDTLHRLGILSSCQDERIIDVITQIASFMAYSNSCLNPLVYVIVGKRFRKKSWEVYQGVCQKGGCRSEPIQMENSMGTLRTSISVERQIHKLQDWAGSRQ

[1] = molecular target: T2, Muscarinic acetylcholine receptor M2 (Homo sapiens, UniProt P08172); assay type: functional, cell-based
T2 sequence (P08172 whole entry): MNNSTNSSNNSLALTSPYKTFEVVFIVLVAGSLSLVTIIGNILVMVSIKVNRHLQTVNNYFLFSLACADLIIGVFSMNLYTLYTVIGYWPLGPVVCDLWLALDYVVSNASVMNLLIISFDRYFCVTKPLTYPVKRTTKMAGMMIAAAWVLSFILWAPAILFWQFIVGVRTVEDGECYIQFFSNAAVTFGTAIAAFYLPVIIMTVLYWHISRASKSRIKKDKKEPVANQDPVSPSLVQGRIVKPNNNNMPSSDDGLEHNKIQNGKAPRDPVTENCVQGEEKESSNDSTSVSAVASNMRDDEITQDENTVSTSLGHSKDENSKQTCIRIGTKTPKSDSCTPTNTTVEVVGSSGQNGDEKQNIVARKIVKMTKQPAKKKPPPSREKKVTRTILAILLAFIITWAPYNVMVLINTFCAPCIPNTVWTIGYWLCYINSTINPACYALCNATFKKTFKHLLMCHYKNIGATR

Mu-type opioid receptor = Mu-type opioid receptor (Homo sapiens, UniProt P35372); assay: biochemical; assay type: functional
[2] = molecular target: 3',5'-cyclic-AMP phosphodiesterase 4D (Homo sapiens, UniProt Q08499); assay type: functional
[3] = molecular target: T3, Equilibrative nucleoside transporter 1 (Homo sapiens, UniProt Q99808)
T3 sequence (Q99808 whole entry): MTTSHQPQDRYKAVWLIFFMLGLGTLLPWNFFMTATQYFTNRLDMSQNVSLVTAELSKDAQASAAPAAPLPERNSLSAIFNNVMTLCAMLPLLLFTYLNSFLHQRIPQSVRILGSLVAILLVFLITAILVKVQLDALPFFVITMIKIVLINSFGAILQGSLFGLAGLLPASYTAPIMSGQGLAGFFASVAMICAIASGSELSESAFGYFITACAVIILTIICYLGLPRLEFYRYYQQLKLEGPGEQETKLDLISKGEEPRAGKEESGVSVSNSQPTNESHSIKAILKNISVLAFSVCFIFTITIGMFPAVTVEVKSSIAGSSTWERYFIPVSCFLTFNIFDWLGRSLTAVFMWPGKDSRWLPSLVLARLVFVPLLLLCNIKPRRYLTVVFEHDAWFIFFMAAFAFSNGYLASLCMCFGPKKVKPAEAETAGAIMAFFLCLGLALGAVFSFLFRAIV

[4] = molecular target: cGMP-inhibited 3',5'-cyclic phosphodiesterase 3A (Homo sapiens, UniProt Q14432); assay type: functional
Histamine H3 receptor = Histamine H3 receptor (Homo sapiens, UniProt Q9Y5N1)
[5] = molecular target: T4, Alpha-2A adrenergic receptor (Homo sapiens, UniProt P08913); assay type: functional, cell-based
T4 sequence (P08913 whole entry): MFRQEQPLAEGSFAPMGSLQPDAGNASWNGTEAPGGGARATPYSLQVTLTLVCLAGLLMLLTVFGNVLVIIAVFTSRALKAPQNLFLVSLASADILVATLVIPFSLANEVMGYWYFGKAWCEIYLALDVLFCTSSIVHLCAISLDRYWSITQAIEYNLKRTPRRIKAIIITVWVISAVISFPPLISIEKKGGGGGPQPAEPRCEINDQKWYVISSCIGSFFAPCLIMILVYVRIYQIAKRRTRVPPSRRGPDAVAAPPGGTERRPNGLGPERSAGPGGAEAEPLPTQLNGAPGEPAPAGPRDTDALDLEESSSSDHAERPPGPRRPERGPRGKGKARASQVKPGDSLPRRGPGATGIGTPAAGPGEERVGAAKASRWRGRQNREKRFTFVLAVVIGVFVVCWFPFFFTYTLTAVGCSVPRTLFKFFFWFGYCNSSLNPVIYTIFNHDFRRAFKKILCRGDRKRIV

Glucocorticoid receptor = molecular target: T5, Glucocorticoid receptor (Homo sapiens, UniProt P04150)
T5 sequence (P04150 whole entry): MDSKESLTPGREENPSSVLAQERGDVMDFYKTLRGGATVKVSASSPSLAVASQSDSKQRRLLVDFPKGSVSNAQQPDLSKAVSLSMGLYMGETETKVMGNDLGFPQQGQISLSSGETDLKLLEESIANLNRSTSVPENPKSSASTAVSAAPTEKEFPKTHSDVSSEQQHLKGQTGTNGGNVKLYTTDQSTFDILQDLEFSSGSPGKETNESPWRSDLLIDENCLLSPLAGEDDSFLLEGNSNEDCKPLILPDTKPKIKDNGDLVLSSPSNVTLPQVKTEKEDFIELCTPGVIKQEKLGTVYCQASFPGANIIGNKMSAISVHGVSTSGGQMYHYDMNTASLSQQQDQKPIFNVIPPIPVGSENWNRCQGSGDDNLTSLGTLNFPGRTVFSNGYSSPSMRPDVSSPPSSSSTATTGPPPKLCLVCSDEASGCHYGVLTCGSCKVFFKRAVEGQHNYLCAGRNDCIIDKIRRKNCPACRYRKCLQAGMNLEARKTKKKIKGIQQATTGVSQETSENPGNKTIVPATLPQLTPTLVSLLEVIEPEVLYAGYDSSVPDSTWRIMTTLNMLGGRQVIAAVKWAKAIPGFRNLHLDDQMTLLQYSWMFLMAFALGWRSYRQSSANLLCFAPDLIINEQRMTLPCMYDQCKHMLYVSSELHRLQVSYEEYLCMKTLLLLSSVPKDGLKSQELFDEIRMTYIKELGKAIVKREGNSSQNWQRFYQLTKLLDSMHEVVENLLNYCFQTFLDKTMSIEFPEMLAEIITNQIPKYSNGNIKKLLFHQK
Further: assay procedure not described here.

3',5'-cyclic-AMP phosphodiesterase 4D, sequence (Q08499 whole entry): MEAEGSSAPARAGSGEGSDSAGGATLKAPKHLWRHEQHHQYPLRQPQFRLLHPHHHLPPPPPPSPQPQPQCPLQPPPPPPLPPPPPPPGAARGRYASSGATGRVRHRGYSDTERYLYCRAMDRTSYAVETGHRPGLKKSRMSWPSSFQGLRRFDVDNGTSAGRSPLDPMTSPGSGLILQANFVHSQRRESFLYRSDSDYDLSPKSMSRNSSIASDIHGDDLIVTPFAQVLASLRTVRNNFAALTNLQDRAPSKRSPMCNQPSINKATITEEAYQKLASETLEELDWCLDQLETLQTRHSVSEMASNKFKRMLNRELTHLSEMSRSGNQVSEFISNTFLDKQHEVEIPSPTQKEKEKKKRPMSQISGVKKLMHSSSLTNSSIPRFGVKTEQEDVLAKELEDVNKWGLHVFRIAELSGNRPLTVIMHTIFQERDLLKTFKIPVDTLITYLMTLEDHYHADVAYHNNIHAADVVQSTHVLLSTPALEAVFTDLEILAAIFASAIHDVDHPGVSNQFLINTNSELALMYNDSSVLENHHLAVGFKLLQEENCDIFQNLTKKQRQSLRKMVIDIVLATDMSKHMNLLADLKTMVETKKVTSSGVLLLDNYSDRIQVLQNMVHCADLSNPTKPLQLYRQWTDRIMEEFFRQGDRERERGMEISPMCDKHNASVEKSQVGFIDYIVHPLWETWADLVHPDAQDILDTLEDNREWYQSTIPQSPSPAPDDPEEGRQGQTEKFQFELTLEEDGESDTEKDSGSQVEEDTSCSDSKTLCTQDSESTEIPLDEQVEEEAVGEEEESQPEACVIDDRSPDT
cGMP-inhibited 3',5'-cyclic phosphodiesterase 3A, sequence (Q14432 whole entry): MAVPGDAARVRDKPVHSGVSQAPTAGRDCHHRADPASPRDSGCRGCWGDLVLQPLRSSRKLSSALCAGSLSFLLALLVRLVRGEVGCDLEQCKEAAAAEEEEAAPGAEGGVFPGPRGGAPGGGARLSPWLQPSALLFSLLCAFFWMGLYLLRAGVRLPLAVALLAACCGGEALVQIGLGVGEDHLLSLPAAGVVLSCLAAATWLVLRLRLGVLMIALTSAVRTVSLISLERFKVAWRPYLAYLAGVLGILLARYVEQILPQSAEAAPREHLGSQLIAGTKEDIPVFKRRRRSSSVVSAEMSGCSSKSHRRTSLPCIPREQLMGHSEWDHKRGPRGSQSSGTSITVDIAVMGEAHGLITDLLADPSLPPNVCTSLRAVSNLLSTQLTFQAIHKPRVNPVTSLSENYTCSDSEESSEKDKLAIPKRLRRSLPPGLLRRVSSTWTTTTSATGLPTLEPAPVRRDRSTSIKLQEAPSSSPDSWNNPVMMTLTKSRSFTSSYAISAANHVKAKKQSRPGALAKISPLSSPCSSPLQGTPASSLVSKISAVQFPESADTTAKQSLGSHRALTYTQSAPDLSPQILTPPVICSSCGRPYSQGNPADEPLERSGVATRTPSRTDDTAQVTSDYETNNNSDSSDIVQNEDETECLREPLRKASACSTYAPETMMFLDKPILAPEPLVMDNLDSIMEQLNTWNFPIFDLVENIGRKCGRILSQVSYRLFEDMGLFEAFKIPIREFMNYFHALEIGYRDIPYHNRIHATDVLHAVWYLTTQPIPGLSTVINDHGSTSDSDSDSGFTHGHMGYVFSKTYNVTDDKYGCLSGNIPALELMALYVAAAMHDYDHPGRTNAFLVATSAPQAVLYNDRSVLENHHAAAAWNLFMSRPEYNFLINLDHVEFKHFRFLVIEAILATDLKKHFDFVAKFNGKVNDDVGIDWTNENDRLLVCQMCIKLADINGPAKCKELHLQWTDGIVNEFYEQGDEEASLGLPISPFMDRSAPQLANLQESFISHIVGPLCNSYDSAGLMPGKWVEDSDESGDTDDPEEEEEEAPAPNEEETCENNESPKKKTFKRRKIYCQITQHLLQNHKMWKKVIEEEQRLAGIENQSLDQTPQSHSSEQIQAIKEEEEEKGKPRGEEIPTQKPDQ
Histamine H3 receptor, sequence (Q9Y5N1 whole entry): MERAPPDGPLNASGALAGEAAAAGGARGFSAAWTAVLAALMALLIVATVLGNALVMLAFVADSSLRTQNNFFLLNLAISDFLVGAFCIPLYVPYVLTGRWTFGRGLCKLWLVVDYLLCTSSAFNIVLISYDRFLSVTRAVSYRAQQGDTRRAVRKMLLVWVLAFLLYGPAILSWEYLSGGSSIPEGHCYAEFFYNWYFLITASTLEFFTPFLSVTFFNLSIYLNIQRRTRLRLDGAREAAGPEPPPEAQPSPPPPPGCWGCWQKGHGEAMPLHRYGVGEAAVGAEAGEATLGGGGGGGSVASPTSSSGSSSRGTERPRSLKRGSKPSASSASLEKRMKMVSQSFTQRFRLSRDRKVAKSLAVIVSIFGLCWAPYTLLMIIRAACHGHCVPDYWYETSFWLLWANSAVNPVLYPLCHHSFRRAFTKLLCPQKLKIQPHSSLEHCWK
Mu-type opioid receptor, sequence (P35372 whole entry): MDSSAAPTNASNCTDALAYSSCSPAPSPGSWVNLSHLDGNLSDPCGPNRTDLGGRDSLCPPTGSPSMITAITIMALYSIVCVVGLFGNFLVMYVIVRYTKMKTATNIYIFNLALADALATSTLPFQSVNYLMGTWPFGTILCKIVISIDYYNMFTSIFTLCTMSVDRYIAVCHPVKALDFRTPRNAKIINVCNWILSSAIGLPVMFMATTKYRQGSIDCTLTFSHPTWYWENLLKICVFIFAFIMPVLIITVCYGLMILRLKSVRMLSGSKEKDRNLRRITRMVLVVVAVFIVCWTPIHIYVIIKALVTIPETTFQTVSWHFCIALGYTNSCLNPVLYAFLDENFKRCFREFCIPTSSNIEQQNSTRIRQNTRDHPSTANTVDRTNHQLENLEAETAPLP

SMILES	AC50 (B2 bradykinin receptor) [µM]	AC50 [1] [µM]	AC50 (Mu-type opioid receptor) [µM]	AC50 [2] [µM]	AC50 [3] [µM]	AC50 [4] [µM]	AC50 (Histamine H3 receptor) [µM]	AC50 [5] [µM]	AC50 (Glucocorticoid receptor) [µM]
O=C1NCCN1CCN1CCC(c2cn(-c3ccc(F)cc3)c3ccc(Cl)cc23)CC1 [SERTINDOLE]	> 30	> 30	> 30	20	> 30	> 30	> 30		
COC(=O)[C@H]1[C@@H](OC(=O)c2ccccc2)C[C@@H]2CC[C@H]1N2C [COCAINE]	> 30	> 30	> 30	> 30	> 30	> 30	> 30	> 30	
COc1c(N2CCNC(C)C2)c(F)cc2c(=O)c(C(=O)O)cn(C3CC3)c12 (configuration not stated) [GATIFLOXACIN]	> 10	> 10	28	> 30	> 10	> 30		> 10	> 10
CCCCCOC(=O)Nc1nc(=O)n([C@@H]2O[C@H](C)[C@@H](O)[C@H]2O)cc1F [CAPECITABINE]	> 30	> 30	> 30	> 30	> 30	> 30	> 30	> 30	
COC(=O)C1=C(C)NC(C)=C(C(=O)OC(C)C)C1c1cccc2nonc12 (configuration not stated) [ISRADIPINE]	> 30	> 10	> 30	9	> 30	23		> 10	15.1
O=C(CCCCC(=O)Nc1c(I)cc(I)c(C(=O)O)c1I)Nc1c(I)cc(I)c(C(=O)O)c1I [IODIPAMIDE]	> 10	> 10	> 30	> 30	> 10	> 30		> 10	> 10
CN1C(=O)COc2c(C(=O)NC3CN4CCC3CC4)cc(Cl)cc21 (configuration not stated) [AZASETRON]	> 30	> 30	> 30	4.1	> 30	> 10	> 30	> 30	
CN1C(=O)CC(c2ccccc2)C1=O (configuration not stated) [PHENSUXIMIDE]	> 10	> 10		> 30	> 10	> 30	> 10	> 10	> 10
C#CCN(C)[C@H](C)Cc1ccccc1 [SELEGILINE]	> 10	> 10		> 30	> 10	> 30	> 10	> 10	> 10
C#CCN[C@@H]1CCc2ccccc21 [RASAGILINE]	> 30	> 30	> 30	> 30	> 30	> 30	> 30	> 30	
CC(=O)OCC(=O)[C@@]12OC3(CCCC3)O[C@@H]1C[C@H]1[C@@H]3CCC4=CC(=O)C=C[C@]4(C)[C@@]3(F)[C@@H](O)C[C@@]12C [AMCINONIDE]	> 10	> 10	> 30	> 30	> 10	> 30		> 10	0.016
CN1CCc2cccc3c2[C@H]1Cc1ccc(O)c(O)c1-3 [APOMORPHINE]	> 30	> 10		2.2	> 30	> 30	> 10	3.8	> 30
CCC1(C2=CCCCCC2)C(=O)NC(=O)NC1=O [HEPTABARBITAL]	> 10	> 10		> 30	> 10	> 30	> 10	> 10	> 10
CC(=O)NS(=O)(=O)c1ccc(N)cc1 [SULFACETAMIDE]	> 10	> 10		> 30	> 10	> 30	> 10	> 10	> 10
CC(Cc1ccccc1)NCCC(c1ccccc1)c1ccccc1 (configuration not stated) [PRENYLAMINE]	> 30	> 10		> 30	> 30	> 30	> 10	> 10	> 30
CCCCN1CCCCC1C(=O)Nc1c(C)cccc1C (configuration not stated) [BUPIVACAINE]	> 30	> 30	> 30	> 30		> 30	> 30	> 30	
CC/C=C\C/C=C\C/C=C\CCCCCCCC(=O)O [LINOLENIC ACID]	> 30	> 30	> 30	> 30	> 30	> 30	> 30	> 30	
CCCC(CCC)C(=O)O[C@H]1C[C@H]2CC[C@@H](C1)[N+]2(C)C [ANISOTROPINE]	> 30	> 30	> 30	> 30		> 30	> 30	> 30	
CN[C@@H]1[C@H](O)[C@H](NC)[C@H]2O[C@@]3(O)C(=O)C[C@@H](C)O[C@H]3O[C@@H]2[C@H]1O [SPECTINOMYCIN]	> 10	> 10		> 30	> 10	> 30	> 10	> 10	> 10
Cc1nc2ccc(CN(C)c3ccc(C(=O)N[C@@H](CCC(=O)O)C(=O)O)s3)cc2c(=O)[nH]1 [RALTITREXED]	> 30	> 30	> 30	> 30	> 30	> 30	> 30	> 30	
